Source: patent US6713266B1 (Isodiagnostika Inc., priority 1998, dated 2004)

Legend:
MoAb CSA-1H6 = test: Inhibition ELISA to the CSA-DVS-HSA conjugate, MoAb; format: binding, mouse
Method: (§1) Inhibition ELISA Protocol:
(§2) 1. Use Falcon Pro-bind immunoplates.
(§3) 2. Dilute coating antigen to 1 μg/mL in carbonate-bicarbonate buffer. Add 100 μL per well and incubate overnight at 4° C.
(§4) 3. On the same day prepare inhibiting antigen tubes. Aliquot antibodies into glass test tubes. Prepare appropriate antigen concentration in ethanol and add to aliquoted antibody at 10 μL ethanol solution/250 μL antibody. Vortex tubes and incubate overnight at 4° C.
(§5) 4. Shake out wells and wash 3× with 200 μL PBS/0.05% TWEEN™ (polyoxyethylene-sorbitol) (v/v) per well.
(§6) 5. Add 200 μL blocking buffer per well (PBS/2% BSA (w/v)). Incubate 60 min at room temperature.
(§7) 7. Transfer contents of inhibition tubes to antigen-coated plate, 100 μL per well. Incubate 60 min at 37° C.
(§8) 9. Dilute alkaline phosphatase conjugated anti-mouse IgG (Pierce cat#31322) in PBS/0.1% TWEEN™ (polyoxyethylene-sorbitol) (v/v) to 1:5000 concentration. Add 100 μL per well and incubate at 37° C. for 60 min.
(§9) 11. […] Add 100 μL per well and incubate in the dark at room temperature. Absorbance can be read at 405 nm at approximately 15-min intervals.

MoAb CSA-2G9 = test: as above; format: binding, mouse
Method: as §1, §2, §3, §4, §5, §6, §7, §8, §9

MoAb AM1-2E10 = test: as above; format: binding, mouse
Method: as §1, §2, §3, §4, §5, §6, §7
(§10) 9. […] Add 100 μL per well and incubate at 37° C. for 60 min.
as §9

MoAb AM1-7F5 = test: as above; format: binding, mouse
Method: as §1, §2, §3, §4, §5, §6, §7, §10, §9

[1] = tested on: Mouse polyclonal sera (CSA-DVS-KLH immunogen); test: Inhibition ELISA, CSA-DVS-HSA coated plate, mouse polyclonal sera; format: binding
Method: as §1, §2, §3, §4, §5, §6, §7, §10, §9

[2] = tested on: Mouse polyclonal sera (AM1-DVS-KLH immunogens); test: Antigen panel (direct) ELISA, mouse polyclonal sera; format: binding
Method: (§11) 1. Use Falcon Pro-bind immunoplate.
(§12) 2. Dilute coating antigen (Ag) to 1.0 μg/mL in carbonate-bicarbonate buffer. Use glass tubes.
(§13) 3. Add 100 μL to each well of plate. Store overnight at 4° C.
as §5
(§14) 5. Add blocking buffer, 200 μL per well (PBS/2% BSA (w/v)). Incubate for 60 min at 37° C.
(§15) 7. Add 100 μL per well of test antibody appropriately diluted in PBS/0.1% Tween (v/v). Incubate 60 min at 37° C.
(§16) 9. Dilute alkaline phosphatase conjugated anti-mouse IgG (Pierce cat #31322) in PBS/0.1% TWEEN™ (polyoxyethylene-sorbitol) (v/v) to 1:2000 concentration. Add 100 μL per well and incubate at 37° C. for 60 min.
(§17) 10. Wash 3× as in step 4.
as §9

[3] = tested on: Mouse polyclonal sera (AM19-9-DVS-KLH immunogens); test: as above; format: binding
Method: as §11, §12, §13, §5, §14, §15, §16, §17, §9

[4] = tested on: Mouse polyclonal sera (AM9-9-DVS-KLH immunogen); test: as above; format: binding
Method: as §11, §12, §13, §5, §14, §15, §16, §17, §9

[5] = tested on: Mouse polyclonal sera (CSA-DVS-KLH immunogen); test: as above; format: binding; settings: KLH coated ELISA plates
Method: as §11, §12, §13, §5, §14, §15, §16, §17, §9

[6] = tested on: Mouse polyclonal sera (AM1-DVS-KLH immunogen); test: Inhibition ELISA to the CSA-DVS-HSA conjugate, mouse polyclonal sera; format: binding
Method: as §1, §2, §3, §4, §5, §6, §7, §10, §9

[7] = tested on: Mouse polyclonal sera (AM19-1-DVS (1) - KLH immunogen); test: Antigen panel (direct) ELISA, mouse polyclonal sera; format: binding; settings: Mice 1 and 2
Method: as §11, §12, §13, §5, §14, §15, §16, §17, §9
(§18) These serum samples were assayed by direct ELISA for antibody titre to specific haptens.

[8] = tested on: Mouse polyclonal sera (AM19-1-DVS (2) - KLH immunogen); test: as above; format: binding; settings: Mice 3 and 4
Method: as §11, §12, §13, §5, §14, §15, §16, §17, §9, §18

[9] = tested on: Mouse polyclonal sera (AM19-1-DVS (1) - KLH immunogen); test: Inhibition ELISA, AM19-1-DVS (1) HSA coated plate, mouse polyclonal sera; format: binding
Method: as §1, §2, §3, §4, §5, §6, §7, §10, §9

[10] = tested on: Mouse polyclonal sera (AM19-1-DVS (2) - KLH immunogen); test: Inhibition ELISA, AM19-1-DVS (2) HSA coated plate, mouse polyclonal sera; format: binding
Method: as §1, §2, §3, §4, §5, §6, §7, §10, §9

[11] = tested on: Rabbit polyclonal sera (AM19-1-DVS-KLH (1) immunogen); test: Inhibition ELISA, AM19-1-DVS (1) HSA coated plate, rabbit polyclonal sera; format: binding
Method: as §1, §2, §3, §4, §5, §6, §7, §10, §9
The AM19-1-DVS (1) conjugate was also used to immunize rabbits.

[12] = tested on: Mouse polyclonal sera (AM19-9-DVS-KLH immunogen); test: Inhibition ELISA, AM19-9-DVS-HSA coated plates, mouse polyclonal sera; format: binding
Method: as §1, §2, §3, §4, §5, §6, §7, §10, §9

[13] = tested on: Mouse polyclonal sera (AM9-9-DVS-KLH immunogen); test: Inhibition ELISA, AM19-9-DVS-HSA coated plate, mouse polyclonal sera; format: binding
Method: as §1, §2, §3, §4, §5, §6, §7, §10, §9

[14] = tested on: Mouse monoclonal antibody AM1-2E10; test: Antigen panel (direct) ELISA, MoAb tissue culture supernatant; format: binding
Method: as §11, §12, §13, §5, §14, §15, §16, §17, §9

[15] = tested on: Mouse monoclonal antibody AM1-7F5; test: as above; format: binding
Method: as §11, §12, §13, §5, §14, §15, §16, §17, §9

[16] = tested on: Mouse monoclonal antibody CSA-1H6; test: as above; format: binding
Method: as §11, §12, §13, §5, §14, §15, §16, §17, §9

[17] = tested on: Mouse monoclonal antibody CSA-2G9; test: as above; format: binding
Method: as §11, §12, §13, §5, §14, §15, §16, §17, §9

[18] = tested on: Mouse monoclonal antibody AM19-1-7E12-1; test: as above; format: binding
Method: as §11, §12, §13, §5, §14, §15, §16, §17, §9
(§19) Spleen cells from mice immunized with the AM19-1-DVS (1) conjugate have been used to prepare MoAb secreting hybridoma cells.

[19] = tested on: Mouse monoclonal antibody AM19-1-7E12-2; test: as above; format: binding
Method: as §11, §12, §13, §5, §14, §15, §16, §17, §9, §19

MoAb AM19-1-7E12-1 = test: Inhibition ELISA with AM19-1-DVS (1) coated ELISA plates, MoAb; format: binding, mouse; settings: AM19-1-7E12-1 TCS
Method: as §1, §2, §3, §4, §5, §6, §7, §10, §9

MoAb AM19-1-7E12-2 = test: as above; format: binding, mouse; settings: AM19-1-7F12-2
Method: as §1, §2, §3, §4, §5, §6, §7, §10, §9

[20] = Mouse 1, inhibiting AG conc 0.156 μg/100 μL
[21] = Mouse 1, inhibiting AG conc 0.313 μg/100 μL
[22] = Mouse 1, inhibiting AG conc 1.25 μg/100 μL
[23] = Mouse 1, inhibiting AG conc 5 μg/100 μL
[24] = Mouse 1, inhibiting AG conc 10 μg/100 μL
[25] = Mouse 2, inhibiting AG conc 0.156 μg/100 μL
[26] = Mouse 2, inhibiting AG conc 0.313 μg/100 μL
[27] = Mouse 2, inhibiting AG conc 1.25 μg/100 μL
[28] = Mouse 2, inhibiting AG conc 5 μg/100 μL
[29] = Mouse 2, inhibiting AG conc 10 μg/100 μL

C=CCC1C=C(C)CC(C)CC(OC)C2OC(O)(C(=O)C(=O)N3CCCCC3C(=O)OC(C(C)=CC3CCC(O)C(OC)C3)C(C)C(O)CC1=NO)C(C)CC2OC (centres unmarked) [III]
Percent Inhibition (MoAb CSA-1H6; CSA-1H6, Table 24, CSA, CSG and CSA derivative inhibitors): 5.5%
Percent Inhibition (MoAb CSA-2G9; CSA-2G9, Table 24, CSA, CSG and CSA derivative inhibitors): 21.9%
Percent Inhibition (MoAb AM1-2E10; AM1-2E10, Table 24, CSA, CSG and CSA derivative inhibitors): 17.8%
Percent Inhibition (MoAb AM1-7F5; AM1-7F5, Table 24, CSA, CSG and CSA derivative inhibitors): 16.6%

FK-DVS-KLH: FK-DVS-KLH conjugate used as inhibitor
Percent Inhibition [1, 20]: 0%
Percent Inhibition [1, 21]: 0%
Percent Inhibition [1, 22]: 0%
Percent Inhibition [1, 23]: 0%
Percent Inhibition [1, 24]: 0%
Percent Inhibition [1, 25]: 0%
Percent Inhibition [1, 26]: 0%
Percent Inhibition [1, 27]: 0%
Percent Inhibition [1, 28]: 0%
Percent Inhibition [1, 29]: 0%

KLH: keyhole limpet hemocyanin, protein carrier
Percent Inhibition [1, 20]: 0%
Percent Inhibition [1, 21]: 0%
Percent Inhibition [1, 22]: 0%
Percent Inhibition [1, 23]: 0%
Percent Inhibition [1, 24]: 0%
Percent Inhibition [1, 25]: 0%
Percent Inhibition [1, 26]: 0%
Percent Inhibition [1, 27]: 0%
Percent Inhibition [1, 28]: 0%
Percent Inhibition [1, 29]: 0%
antibody response to the KLH carrier [2]: significant response
antibody titres to the KLH carrier [3]: Significant antibody titres
antibody titres to the KLH carrier protein [4]: significant antibody titres
antibody response to the KLH carrier [5]: significant response
Percent Inhibition ([6]; Mouse 1): 8.9%
Percent Inhibition ([6]; Mouse 2): 5.8%
antibody titres to the KLH carrier protein [7]: significant antibody titres
antibody titres to the KLH carrier protein [8]: significant antibody titres
Percent Inhibition ([9]; Mouse 1): 0%
Percent Inhibition ([9]; Mouse 2): 0%
Percent Inhibition ([10]; Mouse 3): 0%
Percent Inhibition ([10]; Mouse 4): 0%
Percent Inhibition [11]: 0%
Percent Inhibition ([12]; Mouse 5): 0%
Percent Inhibition ([12]; Mouse 6): 0%
Percent Inhibition ([13]; Mouse 1): 12.3%
Percent Inhibition ([13]; Mouse 2): 35.8%
Percent reactivity ([14]; AM1-2E10, OD to test antigen / OD to CSA-DVS-HSA × 100): 3.9%
OD ([14]; AM1-2E10 TCS, coated test antigen): 0.061
Percent reactivity ([15]; AM1-7F5, OD to test antigen / OD to CSA-DVS-HSA × 100): 0%
OD ([15]; AM1-7F5 TCS, coated test antigen): 0
Percent reactivity ([16]; CSA-1H6, OD to test antigen / OD to CSA-DVS-HSA × 100): 0%
OD ([16]; CSA-1H6 TCS, coated test antigen): 0
Percent reactivity ([17]; CSA-2G9, OD to test antigen / OD to CSA-DVS-HSA × 100): 0%
OD ([17]; CSA-2G9 TCS, coated test antigen): 0.026
Percent Inhibition of TCS (MoAb CSA-1H6; CSA-1H6 TCS, Table 16, CSA-DVS-HSA conjugate): 0%
Percent Inhibition of TCS (MoAb CSA-2G9; CSA-2G9 TCS, Table 16, CSA-DVS-HSA conjugate): 4.8%
Percent Inhibition of TCS (MoAb AM1-2E10; AM1-2E10 TCS, Table 18, CSA-DVS-HSA coated plate): 0%
Percent Inhibition of TCS (MoAb AM1-7F5; AM1-7F51, TCS, Table 18, CSA-DVS-HSA coated plate): 22.5%
Percent reactivity ([18]; AM19-1-7E12-1, OD to test antigen / OD to AM19-1-DVS (1)-HSA × 100): 0%
OD ([18]; AM19-1-7E12-1 TCS, coated test antigen): 0.023
Percent reactivity ([19]; AM19-1-7E12-2, OD to test antigen / OD to AM19-1-DVS (1)-HSA × 100): 0%
OD ([19]; AM19-1-7E12-2 TCS, coated test antigen): 0
Percent Inhibition of TCS (MoAb AM19-1-7E12-1): 3.8%
Percent Inhibition of TCS (MoAb AM19-1-7E12-2): 4.3%
